Assay results taken from US20240116990A1, “Compositions and Methods of Treatment Using CRRL 191” (Mayo Foundation for Medical Education and Research, priority 2022, published 2024).
Bridge positions count the residues as written; N and C are the ends.

Legend:
human GC-A [1] = target: T1, human GC-A (Homo sapiens, UniProt P16066); test: cGMP production in HEK293 cells overexpressing GC-A, 10 min stimulation; format: cell-based; parameters: Mean (intracellular cGMP): unit not given here; conditions: for Mean (intracellular cGMP): 10 min, HEK293 GC-A cells
T1 construct: host or cells: HEK293
T1 sequence (P16066 33-1061): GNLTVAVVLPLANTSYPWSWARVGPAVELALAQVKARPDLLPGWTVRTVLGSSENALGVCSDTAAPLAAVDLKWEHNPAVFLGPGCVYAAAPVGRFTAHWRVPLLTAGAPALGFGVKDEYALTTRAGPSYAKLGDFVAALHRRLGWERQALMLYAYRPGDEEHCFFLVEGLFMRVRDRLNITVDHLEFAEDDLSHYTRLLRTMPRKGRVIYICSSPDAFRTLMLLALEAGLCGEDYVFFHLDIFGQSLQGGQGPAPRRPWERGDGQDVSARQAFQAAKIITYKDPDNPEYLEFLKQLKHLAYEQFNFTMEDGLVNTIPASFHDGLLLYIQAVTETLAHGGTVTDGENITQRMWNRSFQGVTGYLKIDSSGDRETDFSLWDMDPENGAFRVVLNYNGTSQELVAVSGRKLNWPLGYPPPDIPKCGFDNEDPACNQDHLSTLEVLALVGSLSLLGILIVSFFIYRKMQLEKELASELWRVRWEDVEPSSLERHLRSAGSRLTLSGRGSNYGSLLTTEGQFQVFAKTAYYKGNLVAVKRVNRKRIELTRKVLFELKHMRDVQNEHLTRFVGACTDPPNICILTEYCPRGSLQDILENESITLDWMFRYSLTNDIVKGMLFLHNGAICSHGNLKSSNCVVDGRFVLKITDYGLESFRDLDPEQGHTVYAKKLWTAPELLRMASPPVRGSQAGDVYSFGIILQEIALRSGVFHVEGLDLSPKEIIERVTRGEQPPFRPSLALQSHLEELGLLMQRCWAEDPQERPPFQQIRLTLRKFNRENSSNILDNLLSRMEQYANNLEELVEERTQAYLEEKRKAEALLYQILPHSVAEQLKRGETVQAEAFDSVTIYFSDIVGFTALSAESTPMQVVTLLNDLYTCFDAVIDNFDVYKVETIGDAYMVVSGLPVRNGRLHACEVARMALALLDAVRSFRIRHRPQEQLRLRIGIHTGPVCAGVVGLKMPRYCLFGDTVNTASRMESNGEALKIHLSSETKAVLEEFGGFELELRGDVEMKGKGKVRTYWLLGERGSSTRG
Method: (§1) HEK293 cells stably transfected with human GC-A (cDNA clones from Origene, Rockville, MD) using Lipofectamine (Invitrogen, Grand Island, NY), are developed. Receptor overexpression is verified with immunofluorescence and western blotting. GC-A-transfected HEK293 (HEK/GCA) cells are maintained in Dulbecco's modified Eagle's medium (DMEM) supplemented with 10% fetal bovine serum (FBS), 100 U/ml penicillin, 100 U/ml streptomycin and 250 μg/ml G418.
(§2) Two in vitro cGMP assays are performed. Briefly, HEK/GCA cells are seeded in 48-well plates and cultured overnight to 80-90% confluency. The treatment buffer used in all experiments comprises Hank's Balanced Salt Solution (HBSS), 0.1% bovine serum albumin (BSA), 2 mM HEPES, and 0.5 mM 3-isobutyl-1-methylxanthine (IBMX, a non-specific phosphodiesterase inhibitor) (Sigma, St. Louis, MO).
(§3) After treatment, all cells are washed with phosphate buffered solution (PBS) once and lysed with 0.1M HCl.

human GC-A [2] = target: T1, human GC-A; test: cGMP production over 6 hours in HEK/GCA cells; format: cell-based; conditions: 10^−8 M, FIG. 2
Method: as §1, §2, §3

[3] = target: recombinant human neprilysin (NEP) (Homo sapiens, UniProt P08473); test: In vitro neprilysin degradation assay (residual cGMP generation in HEK/GCA cells); conditions: for original bioactivity retained: 37° C.
Sequence of recombinant human neprilysin (NEP) (P08473 whole entry): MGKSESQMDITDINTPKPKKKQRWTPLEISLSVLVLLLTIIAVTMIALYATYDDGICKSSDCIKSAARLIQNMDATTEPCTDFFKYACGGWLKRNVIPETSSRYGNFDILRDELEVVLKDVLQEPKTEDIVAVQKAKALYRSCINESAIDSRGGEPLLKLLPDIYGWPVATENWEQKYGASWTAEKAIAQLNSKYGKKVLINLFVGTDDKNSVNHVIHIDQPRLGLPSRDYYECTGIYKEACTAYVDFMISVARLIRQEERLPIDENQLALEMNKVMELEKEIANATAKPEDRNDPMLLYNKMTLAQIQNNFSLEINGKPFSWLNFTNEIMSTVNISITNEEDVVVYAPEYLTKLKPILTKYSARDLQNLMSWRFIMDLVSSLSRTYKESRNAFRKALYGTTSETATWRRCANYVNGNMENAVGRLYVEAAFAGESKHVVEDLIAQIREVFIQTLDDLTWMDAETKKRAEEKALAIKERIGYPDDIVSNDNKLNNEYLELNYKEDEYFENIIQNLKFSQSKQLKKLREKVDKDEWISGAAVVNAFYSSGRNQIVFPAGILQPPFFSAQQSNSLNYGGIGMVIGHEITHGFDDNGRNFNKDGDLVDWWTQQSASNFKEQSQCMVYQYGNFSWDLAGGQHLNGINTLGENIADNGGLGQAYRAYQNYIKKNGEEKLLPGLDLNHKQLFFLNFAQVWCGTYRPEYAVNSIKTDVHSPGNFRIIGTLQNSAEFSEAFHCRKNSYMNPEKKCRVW
Method: Briefly, 5 μl of 2×10^−5 M peptide is incubated with 5 μl (10 ng/μl) recombinant NEP in 90 μl Tris/0.1% BSA buffer (50 mM Tris-HCl, pH 7.5, 150 mM NaCl, 5 mM MgCl2, 0.1% BSA) at 37° C. for various lengths of time ranging from 15 min to 24 hours. Peptides for the 0-min timepoint are incubated without NEP (buffer only). After incubation for the required length of time (0-min to 24-hour), 100 μl of 0.5 N perchloric acid is added to the reaction solution to inactivate NEP and stop degradation, and 20 μl of 2.5 N NaOH is added to neutralize the solution. The neutralized reaction aliquot is added to HEK/GCA cells and the residual capability of the undegraded peptide (diluted to a final concentration 5.5×10^−8 M) to produce cGMP is measured using the same commercial cGMP ELISA kit (Enzo Life Sciences, Farmingdale, NY) as described in Example 2, following the instructions of the manufacturer.

[4] = test system: Spontaneously Hypertensive Rats (SHR); test: Blood pressure in spontaneously hypertensive rats during infusion and washout; format: in vivo, rat; conditions: 100 pmol/kg and 300 pmol/kg doses
Method: All rat experiments are conducted following the Animal Welfare Act and the protocol is approved by the Mayo Clinic Institutional Animal Care and Use Committee (IACUC). […] Rats are included only if they are deemed healthy by the Institutional Veterinarian Department. Investigators who conduct the in vivo study are not blinded to treatments, but biochemical analysis is performed by a different investigator who is blinded to treatment.
On the day of the experiment, SHR rats are anesthetized with inactin (120 mg/kg, intraperitoneal injection, Sigma, St. Louis, MO). Rats are then kept on a heating pad at 38° C. to maintain a normal body temperature for the entire study. Vascular and bladder cannulation procedures are conducted. Briefly, a polyethylene-50 (PE-50) tube catheter is placed into one jugular vein for peptide infusion and another PE-50 tube is placed into the carotid artery for blood pressure (BP) monitoring (Sonometrics, London, Ontario, Canada) and blood sampling. After instrumentation, a 15-minute equilibrium period follows, and a 30-minute pre-infusion period is performed to collect baseline urine samples.
Four blood samples are collected to determine circulating cGMP levels: at baseline, before the end of drug infusion, at the middle of the washout clearance period, and before the end of the washout clearance period. Any blood loss in the rats is replaced with an equal volume of saline. BP is monitored and recorded every 15 minutes beginning after the initiation of peptide infusion. All collected blood are stored at −80° C. until assayed.

Substance: H-RALLTAPRSLRRSSCFGHKIDRINHVSNLGCNSFRYRITAREDKQGWA-OH (disulfide 15-31) [CRRL 191]
- EC50 (human GC-A [1]): 0.48 nM
- Mean (intracellular cGMP) (human GC-A [1]; 10^−6 M peptide): 135.48
- Mean (intracellular cGMP) (human GC-A [1]; 10^−7 M peptide): 140.84
- Mean (intracellular cGMP) (human GC-A [1]; 10^−8 M peptide): 152.04
- Mean (intracellular cGMP) (human GC-A [1]; 10^−9 M peptide): 89.94
- Mean (intracellular cGMP) (human GC-A [1]; 10^−10 M peptide): 35.57
- Mean (intracellular cGMP) (human GC-A [1]; 10^−12 M peptide): 2.57
- EC50 potency compared to ANP (human GC-A [1]; 10 minutes of stimulation): greater potency
- GC-A activation / cGMP production up to about 30 minutes (human GC-A [2]): increases in cGMP production at the same rate
- GC-A activation / cGMP production after 30 minutes (human GC-A [2]; up to 6 hours): continues to increase up to at least 6 hours
- resistance to degradation by neprilysin compared to ANP ([3]; FIG. 3): highly resistant
- original bioactivity retained ([3]; after 30 minutes of neprilysin degradation): about 90%
- original bioactivity retained ([3]; after 6 hours of neprilysin degradation): 84%
- lowering systolic blood pressure compared to ANP ([4]; iv infusion, FIG. 8A): more effective at lowering
- lowering diastolic blood pressure compared to ANP ([4]; iv infusion, FIG. 8B): more effective at lowering
- lowering mean arterial blood pressure compared to ANP ([4]; iv infusion, FIG. 8C): more effective at lowering
- duration of blood pressure effect after peptide administration compared to ANP ([4]; washout): more sustained effect over time
